Where “and” joins values, the source holds several entries; their conditions need not be identical. Identical values can stand only once.
Legend:
APOE deficient mice [1] = experiment: Example 2: plasma lipid levels in APOE deficient mice, compound in feed, induction and challenge phases; assay type: in vivo, mouse
Procedure: (§1) This example evaluated the effects of a tocopheryl phosphate mixture (TPm) (mono-tocopheryl phosphate and di-tocopheryl phosphate) on the development of atherosclerotic lesions in male APOE deficient mice.
(§2) Twenty-eight mice were divided into 4 groups: 2 control groups, a tocopherol acetate (TA) group (150 mg TA/kg feed) and a TPm group (200 mg TPm/kg feed containing 7% fat).
‘Induction phase’—The induction phase consisted of the first 16 weeks of the treatment period.
‘Challenge phase’—This phase consisted of the final 8 weeks of the treatment period.
The 4 groups of animals were placed on the diet regimes outlined in the table below:
Of the two control animal groups only one was placed on the SF04-055, HFHC diet, while the other control group was maintained on the SF05-040 mouse pellet diet (only 7% fat) for the entire treatment period 24 week treatment period (C24). […] TA treated mice were fed pellets with 150 mg TA/kg feed and TPm treated mice were fed the pellets with 200 mg TPm/kg feed. […] The 26 mg/kg TPm dose was calculated to be the tocopherol equivalent to the TA dose.

APOE deficient mice [2] = experiment: Example 2: aortic atheromatous lesion area by Oil red O staining in APOE deficient mice; assay type: in vivo, mouse; conditions: end of the 24 week treatment period
Procedure: as §1, §2
‘Induction phase’—The induction phase consisted of the first 16 weeks of the treatment period. During this period the animals were fed a mouse pellet diet low in vitamin E (containing less than 20 mg vitamin E per kg food, with a 7% total fat; modified version of the standard AIN93G rodent diet (SF05-040, Specialty feeds, Glen Forrest, Wash. Australia). Control animals were fed the diet alone, while TA-feed contained 150 mg TA/kg feed and TPm-feed contained 200 mg TPm/kg feed. These feeds delivered on average doses of 21 and 26 mg/kg body weight, respectively. The 26 mg/kg TPm dose was calculated to be the tocopherol equivalence of the TA dose. […]
Of the two control animal groups only one was placed on the SF04-055, HFHC diet, while the other control group was maintained on the SF05-040 mouse pellet diet (only 7% fat) for the entire treatment period 24 week treatment period (C24). […] The 26 mg/kg TPm dose was calculated to be the tocopherol equivalent to the TA dose. […]

[3] = Challenge phase (HFHC diet), week 24, TA 150 mg/kg feed, TPm 200 mg/kg feed
[4] = Induction phase, week 16, TA 150 mg/kg feed, TPm 200 mg/kg feed

CC(=O)Oc1c(C)c(C)c2c(c1C)CCC(C)(CCC[C@H](C)CCC[C@H](C)CCCC(C)C)O2 (stereo partly drawn) [TA, Tocopherol Acetate]
LDL-C level (mean ± SD) (APOE deficient mice [1]; Baseline, week 0): 8.85 ± 1.66 mmol/L
total cholesterol level (mean ± SD) (APOE deficient mice [1]; Baseline, week 0): 12.75 ± 1.41 mmol/L
triglyceride level (mean ± SD) (APOE deficient mice [1]; Baseline, week 0): 1.75 ± 0.25 mmol/L
LDL-C level (mean ± SD) (APOE deficient mice [1]; [3]): 18.98 ± 2.29 mmol/L
total cholesterol level (mean ± SD) (APOE deficient mice [1]; [3]): 47.13 ± 4.44 mmol/L
triglyceride level (mean ± SD) (APOE deficient mice [1]; [3]): 2.23 ± 0.29 mmol/L
LDL-C level (mean ± SD) (APOE deficient mice [1]; [4]): 6.51 ± 0.71 mmol/L
total cholesterol level (mean ± SD) (APOE deficient mice [1]; [4]): 14.47 ± 1.32 mmol/L
triglyceride level (mean ± SD) (APOE deficient mice [1]; [4]): 1.30 ± 0.22 mmol/L
reduction in plasma lipid levels (APOE deficient mice [1]; after the challenge phase (week 24)): no significant reduction
reduction in aortic lesion area / lesion formation compared to control mice on the same diet regime (APOE deficient mice [2]): 12%
Atheromatous lesion area, % Lesion coverage (mean ± SD) (APOE deficient mice [2]; HFHC diet final 8 weeks): 9.4% and 9.4 ± 1.1%
